# US20070117770A1, “Human ribosomal DNA (rDNA) and ribosomal RNA (rRNA) nucleic acids and uses thereof” (Cylene Pharmaceuticals, Inc., priority 2005, published 2007)
# Tests used:
# Experiment in all cases: Protein kinase inhibition assay
# Type in all cases: biochemical
# Axl(h) = Axl(h) (Homo sapiens, UniProt P30530); conditions: read-out: percent residual activity of Axl(h)
# Protocol: (§1) Certain compounds were tested for activity in protein kinase inhibition assays. All substrates were dissolved and diluted to working stocks in de-ionized water, apart from histone H1 (10× working stock in 20 mM MOPS pH 7.0), PDKtide (10× working stock in 50 mM Tris pH 7.0) ATF2 (which is typically stored at a 20× working stock in 50 mM Tris pH 7.5, 150 mM NaCl, 0.1 mM EGTA, 0.03% Brij-35, 50% glycerol, 1 mM benzamidine, 0.2 mM PMSF and 0.1% R-mercaptoethanol), KKLNRTLSFAEPG (SEQ ID NO:203) and RRRLSFAEPG (SEQ ID NO:204) (50 mM HEPES pH 7.4) and GGEEEEYFELVKKKK (SEQ ID NO:205) (20 mM MOPS pH 7.0). All kinases were pre-diluted to a 10× working concentration prior to addition into the assay. The composition of the dilution buffer for each kinase is detailed below.
# (§2) In a final reaction volume of 25 μl, Axl (h) (5-10 mU) is incubated with 8 mM MOPS pH 7.0, 0.2 mM EDTA, 250 μM KKSRGDYMTMQIG (SEQ ID NO:210), 10 mM MgAcetate and [y-33P-ATP] (specific activity approx. 500 cpm/pmol, concentration as required). The reaction is initiated by the addition of the MgATP mix. After incubation for 40 minutes at room temperature, the reaction is stopped by the addition of 5 μl of a 3% phosphoric acid solution. 10 μl of the reaction is then spotted onto a P30 filtermat and washed three times for 5 minutes in 75 mM phosphoric acid and once in methanol prior to drying and scintillation counting.
# CK2(h) = CK2(h) (Homo sapiens, UniProt P68400); conditions: read-out: percent residual activity of CK2(h)
# Protocol: as §1
# In a final reaction volume of 25 μl, CK2 (h) (5-10 mU) is incubated with 20 mM HEPES pH 7.6, 0.15 M NaCl, 0.1 mM EDTA, 5 mM DTT, 0.1% Triton X-100, 165 μM RRRDDDSDDD (SEQ ID NO:215), 10 mM MgAcetate and [gamma-33P-ATP] (specific activity approx. 500 cpm/pmol, concentration as required). The reaction is initiated by the addition of the MgATP mix. After incubation for 40 minutes at room temperature, the reaction is stopped by the addition of 5 μl of a 3% phosphoric acid solution. […]
# IR(h) = IR(h) (Homo sapiens, UniProt P06213); conditions: read-out: percent residual activity of IR(h)
# Protocol: as §1
# In a final reaction volume of 25 μl, IR (h) (5-10 mU) is incubated with 50 mM Tris pH 7.5, 0.1 mM EGTA, 0.1 mM Na3VO4, 0.1% R-mercaptoethanol, 250 μM KKSRGDYMTMQIG (SEQ ID NO:210), 10 mM MnCl2, 10 mM MgAcetate and [gamma-33P-ATP] (specific activity approx. 500 cpm/pmol, concentration as required). The reaction is initiated by the addition of the MgATP mix. After incubation for 40 minutes at room temperature, the reaction is stopped by the addition of 5 μl of a 3% phosphoric acid solution. […]
# EGFR(L861Q)(h) = EGFR(L861Q)(h) (Homo sapiens, UniProt P00533, L861Q); conditions: read-out: percent residual activity of EGFR(L861Q)(h)
# Protocol: as §1
# as §2, with “EGFR (L861 Q)” for “Axl”, “0.1 mg/ml poly(Glu, Tyr) 4:1,” for “250 μM KKSRGDYMTMQIG (SEQ ID NO:210),”, “[gamma-33P-ATP]” for “[y-33P-ATP]”, “Filtermat A” for “P30 filtermat”
# PKCε(h) = PKCε(h) (Homo sapiens, UniProt Q02156); conditions: read-out: percent residual activity of PKCε(h)
# Protocol: as §1
# In a final reaction volume of 25 μl, PKCε (h) (5-10 mU) is incubated with 20 mM HEPES pH 7.4, 0.03% Triton X-100, 0.1 mg/ml phosphatidylserine, 10 μg/ml diacylglycerol, 50 μM ERMRPRKRQGSVRRRV (SEQ ID NO:224), 10 mM MgAcetate and [gamma-33P-ATP] (specific activity approx. 500 cpm/pmol, concentration as required). The reaction is initiated by the addition of the MgATP mix. After incubation for 40 minutes at room temperature, the reaction is stopped by the addition of 5 pi of a 3% phosphoric acid solution. […]
# BRK(h) = BRK(h) (Homo sapiens, UniProt Q13882); conditions: read-out: percent residual activity of BRK(h)
# Protocol: as §1
# as §2, with “BRK” for “Axl”, “5 mM MnCl2, 0.1 mg/ml poly (Glu, Tyr) 4:1,” for “250 μM KKSRGDYMTMQIG (SEQ ID NO:210),”, “[gamma-33P-ATP]” for “[y-33P-ATP]”, “Filtermat A” for “P30 filtermat”
# Sequence of EGFR(L861Q)(h) (P00533 25-1210 L861Q): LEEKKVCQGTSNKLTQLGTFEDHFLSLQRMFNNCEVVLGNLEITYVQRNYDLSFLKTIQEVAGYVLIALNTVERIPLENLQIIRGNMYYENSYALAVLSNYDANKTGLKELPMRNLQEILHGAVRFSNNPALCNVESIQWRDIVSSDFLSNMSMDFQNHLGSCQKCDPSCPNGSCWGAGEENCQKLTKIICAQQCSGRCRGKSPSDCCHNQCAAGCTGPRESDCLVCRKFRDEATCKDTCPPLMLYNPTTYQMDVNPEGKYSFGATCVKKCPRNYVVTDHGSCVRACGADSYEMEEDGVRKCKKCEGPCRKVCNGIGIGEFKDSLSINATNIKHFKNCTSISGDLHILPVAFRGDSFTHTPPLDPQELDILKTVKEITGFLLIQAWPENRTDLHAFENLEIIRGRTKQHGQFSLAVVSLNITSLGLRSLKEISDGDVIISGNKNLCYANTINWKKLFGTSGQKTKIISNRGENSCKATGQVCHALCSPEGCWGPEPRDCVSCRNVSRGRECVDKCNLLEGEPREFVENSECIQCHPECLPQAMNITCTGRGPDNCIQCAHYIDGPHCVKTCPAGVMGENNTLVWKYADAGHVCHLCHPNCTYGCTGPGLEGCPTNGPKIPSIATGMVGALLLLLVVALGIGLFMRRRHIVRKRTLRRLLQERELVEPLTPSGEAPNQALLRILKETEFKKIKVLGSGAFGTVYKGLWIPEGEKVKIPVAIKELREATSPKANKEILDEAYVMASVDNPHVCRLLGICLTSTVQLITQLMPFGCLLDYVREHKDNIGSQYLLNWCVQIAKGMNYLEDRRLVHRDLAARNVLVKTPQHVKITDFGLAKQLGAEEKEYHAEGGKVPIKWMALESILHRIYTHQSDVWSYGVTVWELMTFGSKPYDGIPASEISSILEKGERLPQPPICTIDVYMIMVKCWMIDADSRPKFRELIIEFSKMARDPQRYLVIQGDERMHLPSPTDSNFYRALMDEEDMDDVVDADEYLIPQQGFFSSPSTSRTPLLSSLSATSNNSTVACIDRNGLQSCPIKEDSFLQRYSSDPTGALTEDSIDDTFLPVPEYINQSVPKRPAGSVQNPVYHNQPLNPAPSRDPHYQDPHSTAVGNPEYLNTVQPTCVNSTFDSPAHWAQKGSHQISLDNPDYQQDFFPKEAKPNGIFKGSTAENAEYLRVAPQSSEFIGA
# Sequence of Axl(h) (P30530 26-894): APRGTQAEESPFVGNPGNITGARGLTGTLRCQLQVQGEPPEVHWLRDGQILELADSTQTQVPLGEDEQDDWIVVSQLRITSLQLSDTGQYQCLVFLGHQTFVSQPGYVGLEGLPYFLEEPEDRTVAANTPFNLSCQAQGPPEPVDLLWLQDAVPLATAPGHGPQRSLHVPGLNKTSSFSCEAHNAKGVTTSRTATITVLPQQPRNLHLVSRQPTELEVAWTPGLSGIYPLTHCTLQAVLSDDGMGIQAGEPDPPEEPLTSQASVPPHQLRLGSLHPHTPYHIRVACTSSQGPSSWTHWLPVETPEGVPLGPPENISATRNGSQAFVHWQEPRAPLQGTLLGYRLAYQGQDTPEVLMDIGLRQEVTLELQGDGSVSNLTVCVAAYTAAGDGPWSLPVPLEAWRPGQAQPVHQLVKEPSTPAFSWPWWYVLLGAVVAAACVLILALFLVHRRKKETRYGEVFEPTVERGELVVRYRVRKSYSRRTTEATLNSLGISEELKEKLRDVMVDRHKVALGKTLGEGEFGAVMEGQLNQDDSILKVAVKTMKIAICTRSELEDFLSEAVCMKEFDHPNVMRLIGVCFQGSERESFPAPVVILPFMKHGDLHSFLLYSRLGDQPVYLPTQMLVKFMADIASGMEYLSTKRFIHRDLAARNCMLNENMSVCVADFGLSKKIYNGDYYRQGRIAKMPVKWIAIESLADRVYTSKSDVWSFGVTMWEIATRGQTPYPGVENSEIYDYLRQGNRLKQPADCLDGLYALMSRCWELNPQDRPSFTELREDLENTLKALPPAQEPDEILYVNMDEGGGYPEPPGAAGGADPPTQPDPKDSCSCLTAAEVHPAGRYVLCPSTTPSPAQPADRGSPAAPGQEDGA
# Sequence of IR(h) (P06213 28-1382): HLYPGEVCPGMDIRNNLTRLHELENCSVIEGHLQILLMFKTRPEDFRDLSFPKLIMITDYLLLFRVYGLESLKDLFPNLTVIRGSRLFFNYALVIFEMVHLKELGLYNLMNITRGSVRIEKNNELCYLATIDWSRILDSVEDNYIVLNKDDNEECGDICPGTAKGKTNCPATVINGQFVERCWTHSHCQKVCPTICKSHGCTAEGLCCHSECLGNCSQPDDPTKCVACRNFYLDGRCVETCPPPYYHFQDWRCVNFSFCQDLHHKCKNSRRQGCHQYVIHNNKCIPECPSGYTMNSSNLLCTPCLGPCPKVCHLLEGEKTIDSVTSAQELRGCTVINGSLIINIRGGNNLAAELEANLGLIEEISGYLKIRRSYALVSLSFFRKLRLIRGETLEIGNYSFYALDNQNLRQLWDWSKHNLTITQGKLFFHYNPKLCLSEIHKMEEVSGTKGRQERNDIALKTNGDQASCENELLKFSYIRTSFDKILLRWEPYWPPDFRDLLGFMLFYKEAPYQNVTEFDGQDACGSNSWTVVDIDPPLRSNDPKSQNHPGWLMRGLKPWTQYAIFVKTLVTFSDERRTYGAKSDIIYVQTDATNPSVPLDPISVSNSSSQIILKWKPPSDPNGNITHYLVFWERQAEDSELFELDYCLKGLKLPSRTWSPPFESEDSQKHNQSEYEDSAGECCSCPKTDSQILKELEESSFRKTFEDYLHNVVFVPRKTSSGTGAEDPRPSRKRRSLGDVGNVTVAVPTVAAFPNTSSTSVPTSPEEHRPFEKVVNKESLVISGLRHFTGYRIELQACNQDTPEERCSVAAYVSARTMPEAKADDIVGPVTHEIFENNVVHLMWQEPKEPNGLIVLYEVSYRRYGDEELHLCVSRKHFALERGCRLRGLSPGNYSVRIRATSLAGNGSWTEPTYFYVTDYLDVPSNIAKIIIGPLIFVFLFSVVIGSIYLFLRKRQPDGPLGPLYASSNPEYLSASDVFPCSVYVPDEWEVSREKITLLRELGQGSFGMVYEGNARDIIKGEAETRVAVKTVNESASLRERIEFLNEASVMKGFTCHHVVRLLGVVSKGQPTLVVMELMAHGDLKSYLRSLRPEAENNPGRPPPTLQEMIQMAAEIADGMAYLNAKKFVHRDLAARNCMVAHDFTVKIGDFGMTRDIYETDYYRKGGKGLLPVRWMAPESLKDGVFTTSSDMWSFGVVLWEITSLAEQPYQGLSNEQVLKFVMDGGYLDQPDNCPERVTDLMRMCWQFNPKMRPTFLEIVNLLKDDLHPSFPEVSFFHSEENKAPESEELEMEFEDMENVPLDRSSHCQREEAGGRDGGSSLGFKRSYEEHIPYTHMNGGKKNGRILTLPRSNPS
# Sequence of CK2(h) (P68400 whole entry): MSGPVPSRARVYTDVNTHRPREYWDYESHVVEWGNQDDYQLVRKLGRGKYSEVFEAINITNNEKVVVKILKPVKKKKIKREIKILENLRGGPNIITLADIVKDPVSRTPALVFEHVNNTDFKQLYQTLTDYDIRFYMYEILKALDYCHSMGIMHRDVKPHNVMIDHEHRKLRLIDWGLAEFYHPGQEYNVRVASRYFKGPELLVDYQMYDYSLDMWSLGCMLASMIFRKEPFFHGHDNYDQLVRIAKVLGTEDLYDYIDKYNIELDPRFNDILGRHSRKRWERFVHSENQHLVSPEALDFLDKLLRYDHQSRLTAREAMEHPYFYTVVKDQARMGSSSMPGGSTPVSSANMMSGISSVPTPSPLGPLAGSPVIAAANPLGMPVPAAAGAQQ
# Sequence of CK2(h) (P67870 whole entry partner): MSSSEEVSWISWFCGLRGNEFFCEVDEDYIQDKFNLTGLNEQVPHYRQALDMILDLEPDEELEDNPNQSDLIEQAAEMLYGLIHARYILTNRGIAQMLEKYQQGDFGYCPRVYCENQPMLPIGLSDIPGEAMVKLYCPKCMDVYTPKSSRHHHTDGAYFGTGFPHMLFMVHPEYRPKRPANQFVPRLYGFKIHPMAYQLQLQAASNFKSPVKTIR
# Sequence of PKCε(h) (Q02156 whole entry): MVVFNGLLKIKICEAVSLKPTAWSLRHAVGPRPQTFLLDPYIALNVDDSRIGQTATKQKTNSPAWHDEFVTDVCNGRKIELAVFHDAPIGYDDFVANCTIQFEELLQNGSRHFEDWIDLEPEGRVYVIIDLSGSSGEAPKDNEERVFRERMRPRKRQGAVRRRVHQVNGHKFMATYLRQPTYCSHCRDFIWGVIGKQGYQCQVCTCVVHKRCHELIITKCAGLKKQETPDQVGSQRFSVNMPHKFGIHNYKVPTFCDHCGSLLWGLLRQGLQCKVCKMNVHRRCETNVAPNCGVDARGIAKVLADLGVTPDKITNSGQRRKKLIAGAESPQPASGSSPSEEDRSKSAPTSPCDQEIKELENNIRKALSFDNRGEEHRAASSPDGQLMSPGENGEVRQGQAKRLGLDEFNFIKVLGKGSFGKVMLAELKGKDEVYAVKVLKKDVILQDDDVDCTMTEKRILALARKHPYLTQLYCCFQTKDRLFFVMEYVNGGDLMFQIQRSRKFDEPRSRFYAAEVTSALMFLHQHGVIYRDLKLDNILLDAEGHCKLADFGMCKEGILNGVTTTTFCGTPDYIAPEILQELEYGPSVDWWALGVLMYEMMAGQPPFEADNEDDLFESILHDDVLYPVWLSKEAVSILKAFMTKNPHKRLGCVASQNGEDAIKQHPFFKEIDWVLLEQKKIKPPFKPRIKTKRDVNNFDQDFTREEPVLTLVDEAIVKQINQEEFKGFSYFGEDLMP
remaining activity at 2.5 µM (Axl(h)),remaining activity at 2.5 µM (CK2(h)),remaining activity at 2.5 µM (IR(h)),remaining activity at 2.5 µM (EGFR(L861Q)(h)),remaining activity at 2.5 µM (PKCε(h)),remaining activity at 2.5 µM (BRK(h)),Compound
75%,104%,96%,94%,99%,131%,CN1CCCC1CCNC(=O)c1cn2c3c(c(N4CCC(c5cnccn5)C4)c(F)cc3c1=O)Oc1cc3ccccc3cc1-2 (stereo not drawn) [Compound A-1]
102%,102%,110%,109%,109%,98%,CC(=O)N1CCN(c2ccc3c(=O)c(C(=O)NCCN4CCCC4)c4n(C)c5ccccc5n4c3n2)CC1 [Compound B-1]
